From US12686665B2, “Bicyclic fused ring derivative or salt thereof and pharmaceutical composition comprising same” (YUHAN CORPORATION, priority 2021, dated 2026)
Where a name gives a salt, the structure may show the parent alone.

How the values were obtained:
[1] = system: UUO animal model causing kidney disease; conditions: cited from earlier work
[2] = system: mouse bleomycin-mediated lung injury model; conditions: cited from earlier work
[3] = molecular target: T1, recombinant human MAO-B (monoamine oxidase-B) (Homo sapiens, UniProt P27338); assay: Amplex Red HRP-coupled amine oxidase assay, recombinant human MAO-B; type: biochemical; conditions: 1 mM benzylamine substrate, read-out: Inhibitory activity (IC50, nM) MAO-B
T1 construct: purchased Sigma-Aldrich
T1 sequence (P27338 1-520): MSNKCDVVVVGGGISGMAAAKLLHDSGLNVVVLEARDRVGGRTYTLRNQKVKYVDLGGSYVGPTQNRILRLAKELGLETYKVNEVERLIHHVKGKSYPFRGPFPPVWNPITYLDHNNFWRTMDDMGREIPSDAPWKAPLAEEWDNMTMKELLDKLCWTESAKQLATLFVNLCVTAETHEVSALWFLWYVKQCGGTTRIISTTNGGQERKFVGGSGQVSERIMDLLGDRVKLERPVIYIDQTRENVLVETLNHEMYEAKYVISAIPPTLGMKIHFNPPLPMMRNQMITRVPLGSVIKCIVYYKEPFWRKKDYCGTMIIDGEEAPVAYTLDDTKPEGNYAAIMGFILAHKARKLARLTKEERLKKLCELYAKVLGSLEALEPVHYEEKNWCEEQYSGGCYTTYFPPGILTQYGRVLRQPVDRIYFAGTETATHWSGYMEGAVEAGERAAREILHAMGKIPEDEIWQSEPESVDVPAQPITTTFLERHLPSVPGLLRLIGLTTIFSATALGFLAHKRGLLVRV
Summary of the method: (§1)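 Enzyme preincubated 60 min at 37 °C with compound (six-point curve, 1% DMSO final) in 50 mM sodium phosphate pH 7.4, then Amplex Red 400 μM and HRP 2 U/mL added with substrate: MAO-A 0.5 mM tyramine, MAO-B 1 mM benzylamine, DAO 1 mM putrescine. Resorufin fluorescence read after 1 h; IC50 by four-parameter logistic fit.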

[4] = molecular target: T2, recombinant human MAO-A (monoamine oxidase-A) (Homo sapiens, UniProt P21397); assay: Amplex Red HRP-coupled amine oxidase assay, recombinant human MAO-A; type: biochemical; conditions: 0.5 mM tyramine substrate, read-out: Inhibitory activity (IC50, nM) MAO-A
T2 construct: purchased Sigma-Aldrich
T2 sequence (P21397 1-527): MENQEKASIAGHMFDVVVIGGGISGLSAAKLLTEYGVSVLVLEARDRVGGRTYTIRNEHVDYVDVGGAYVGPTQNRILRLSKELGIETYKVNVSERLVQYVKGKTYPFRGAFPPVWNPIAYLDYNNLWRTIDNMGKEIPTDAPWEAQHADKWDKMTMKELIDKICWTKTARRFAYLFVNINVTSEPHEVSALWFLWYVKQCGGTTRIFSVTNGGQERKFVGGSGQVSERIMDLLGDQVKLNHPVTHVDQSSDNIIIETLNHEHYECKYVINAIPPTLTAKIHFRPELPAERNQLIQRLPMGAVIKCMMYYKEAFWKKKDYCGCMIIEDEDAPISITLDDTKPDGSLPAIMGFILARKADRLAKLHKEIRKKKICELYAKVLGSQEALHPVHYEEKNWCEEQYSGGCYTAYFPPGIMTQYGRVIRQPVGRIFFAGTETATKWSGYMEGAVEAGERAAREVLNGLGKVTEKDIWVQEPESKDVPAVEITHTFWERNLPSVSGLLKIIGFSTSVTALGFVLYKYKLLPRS
Summary of the method: as §1

[5] = molecular target: T3, recombinant human Lysyl Oxidase-Like 2 (LOXL2) (Homo sapiens, UniProt Q9Y4K0); assay: Amplex Red HRP-coupled amine oxidase assay, recombinant human LOXL2; type: biochemical; conditions: 60 min incubation with enzyme at 37° C., putrescine substrate, read-out: Inhibitory activity (IC50, nM) human LOXL2
T3 construct: purchased R&D systems
T3 sequence (Q9Y4K0 26-774): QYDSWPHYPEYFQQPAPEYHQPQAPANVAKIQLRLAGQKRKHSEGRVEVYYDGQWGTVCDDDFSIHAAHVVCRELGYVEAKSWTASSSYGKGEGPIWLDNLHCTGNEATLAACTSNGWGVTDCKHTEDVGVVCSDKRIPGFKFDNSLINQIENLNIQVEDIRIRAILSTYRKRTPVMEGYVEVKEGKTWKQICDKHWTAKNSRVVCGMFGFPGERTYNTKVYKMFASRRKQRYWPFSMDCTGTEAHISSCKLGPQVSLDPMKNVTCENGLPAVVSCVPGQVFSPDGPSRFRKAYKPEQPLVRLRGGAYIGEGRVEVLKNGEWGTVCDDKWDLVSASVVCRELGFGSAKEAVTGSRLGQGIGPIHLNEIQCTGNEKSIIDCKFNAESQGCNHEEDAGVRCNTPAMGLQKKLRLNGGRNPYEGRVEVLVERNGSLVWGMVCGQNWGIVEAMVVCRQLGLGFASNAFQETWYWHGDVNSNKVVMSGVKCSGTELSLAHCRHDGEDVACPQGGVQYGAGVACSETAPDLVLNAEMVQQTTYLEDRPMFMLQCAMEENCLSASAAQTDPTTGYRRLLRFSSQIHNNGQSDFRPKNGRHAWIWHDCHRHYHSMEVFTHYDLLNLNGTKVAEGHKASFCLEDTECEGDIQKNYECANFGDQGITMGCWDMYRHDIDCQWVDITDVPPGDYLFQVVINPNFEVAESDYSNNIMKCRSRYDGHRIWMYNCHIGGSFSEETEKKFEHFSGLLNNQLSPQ
Summary of the method: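 Putrescine substrate (30 mM) in 50 mM sodium phosphate pH 7.4, 37 °C; compounds preincubated 60 min with enzyme, 1% DMSO final, six-point curves. H2O2 detected via 400 μM Amplex Red/2 U/mL HRP, fluorescence (ex 530/em 590 nm) after 1 h; IC50 from four-parameter logistic fit of % signal reduction.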

[6] = molecular target: T4, recombinant human DAO (diamine oxidase) (Homo sapiens, UniProt P19801); assay: Amplex Red HRP-coupled amine oxidase assay, recombinant human DAO; type: biochemical; conditions: 1 mM putrescine substrate, read-out: Inhibitory activity (IC50, nM) DAO
T4 construct: purchased R&D systems
T4 sequence (P19801 20-751): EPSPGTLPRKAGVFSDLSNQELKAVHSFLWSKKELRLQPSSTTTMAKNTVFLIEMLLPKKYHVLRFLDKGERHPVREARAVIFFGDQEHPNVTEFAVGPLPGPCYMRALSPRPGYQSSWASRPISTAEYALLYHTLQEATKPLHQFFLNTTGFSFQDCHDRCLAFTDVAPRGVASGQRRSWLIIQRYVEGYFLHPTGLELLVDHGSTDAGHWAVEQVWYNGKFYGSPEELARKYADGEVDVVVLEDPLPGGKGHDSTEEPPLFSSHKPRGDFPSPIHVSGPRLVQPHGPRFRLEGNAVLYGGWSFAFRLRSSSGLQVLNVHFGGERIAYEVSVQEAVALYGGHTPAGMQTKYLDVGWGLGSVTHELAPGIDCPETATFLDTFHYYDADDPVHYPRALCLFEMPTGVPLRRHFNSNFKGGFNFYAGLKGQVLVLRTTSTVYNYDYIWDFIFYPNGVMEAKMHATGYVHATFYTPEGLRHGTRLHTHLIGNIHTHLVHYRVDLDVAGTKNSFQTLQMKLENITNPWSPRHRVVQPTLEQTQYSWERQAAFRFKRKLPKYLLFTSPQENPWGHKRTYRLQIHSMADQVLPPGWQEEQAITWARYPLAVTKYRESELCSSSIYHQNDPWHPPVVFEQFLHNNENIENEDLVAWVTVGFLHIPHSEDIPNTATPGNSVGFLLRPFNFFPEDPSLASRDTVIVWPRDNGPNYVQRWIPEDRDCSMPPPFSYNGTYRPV
Summary of the method: as §1

SMILES	IC50 [3]	IC50 [4]	IC50 [5]	IC50 [6]	renal fibrosis [1]	fibrosis [2]
NC/C=C(\F)CS(=O)(=O)c1cccc2cccnc12 [PXS-5505]	–	–	–	–	significantly reduced renal fibrosis	–
NCc1cc(Oc2cccc(C(=O)N3C[C@@H](O)[C@H](F)C3)c2)nc(C(F)(F)F)c1 [PAT-1251]	–	–	–	–	–	significantly reduced fibrosis
NC/C=C(\F)Cn1cnc2c(-c3cncnc3)cc(C(F)(F)F)cc21 [Example 175, (Z)-3-fluoro-4-(4-(pyrimidin-5-yl)-6-(trifluoromethyl)-1H-benzo[d]imidazol-1-yl)but-2-en-1-amine hydrochloride]	> 100000 nM	> 100000 nM	259 nM	2580 nM	–	–
CS(=O)(=O)c1cccc(-c2cc(F)cc3c2ncn3C/C(F)=C/CN)c1 [Example 3, (Z)-3-fluoro-4-(6-fluoro-4-(3-(methylsulfonyl)phenyl)-1H-benzo[d]imidazol-1-yl)but-2-en-1-amine hydrochloride]	71200 nM	> 100000 nM	54 nM	2940 nM	–	–
NC/C=C(\F)Cn1cnc2c(-c3cncc(Cl)c3)cc(C(F)(F)F)cc21 [Example 174, (Z)-4-(4-(5-chloropyridin-3-yl)-6-(trifluoromethyl)-1H-benzo[d]imidazol-1-yl)-3-fluoro-but-2-en-1-amine hydrochloride]	> 100000 nM	81200 nM	304 nM	2210 nM	–	–
NC/C=C(\F)Cn1cnc2c(-c3cncc(F)c3)cc(C(F)(F)F)cc21 [Example 173, (Z)-3-fluoro-4-(4-(5-fluoropyridin-3-yl)-6-(trifluoromethyl)-1H-benzo[d]imidazol-1-yl)but-2-en-1-amine hydrochloride]	> 100000 nM	15400 nM	269 nM	3730 nM	–	–
NC/C=C(\F)Cn1nnc2c(-c3cccc(S(=O)(=O)N4CCC(F)(F)C4)c3)cccc21 [Example 103, (Z)-4-(4-(3-((3,3-difluoropyrrolidin-1-yl)sulfonyl)phenyl)-1H-benzo[d][1,2,3]triazol-1-yl)-3-fluorobut-2-en-1-amine hydrochloride]	23500 nM	9060 nM	25 nM	27900 nM	–	–
N#Cc1cc(-c2ccn(CCO)n2)c2ncn(C/C(F)=C/CN)c2c1 [Example 195, (Z)—1-(4-amino-2-fluorobut-2-en-1-yl)-4-(1-(2-hydroxyethyl)-1H-pyrazol-3-yl)-1H-benzo[d]imidazol-6-carbonitrile hydrochloride]	> 100000 nM	> 100000 nM	159 nM	5560 nM	–	–
CNS(=O)(=O)c1cccc(-c2cc(F)cc3c2ncn3C/C(F)=C/CN)c1 [Example 10, (Z)-3-(1-(4-amino-2-fluorobut-2-en-1-yl)-6-fluoro-1H-benzo[d]imidazol-4-yl)-N-methylbenzenesulfonamide hydrochloride]	> 100000 nM	65500 nM	22 nM	3920 nM	–	–
Cc1cc(-c2cc(C#N)cc3c2ncn3C/C(F)=C/CN)n(C)n1 [Example 194, (Z)-1-(4-amino-2-fluorobut-2-en-1-yl)-4-(1,3-dimethyl-1H-pyrazol-5-yl)-1H-benzo[d]imidazol-6-carbonitrile hydrochloride]	> 100000 nM	36800 nM	105 nM	7590 nM	–	–

Now from value to molecule, other results behind:

IC50 [3]	IC50 [4]	IC50 [5]	IC50 [6]	SMILES	renal fibrosis [1]	fibrosis [2]
> 100000 nM	10300 nM	60 nM	2500 nM	COC(=O)c1cc(-c2cccc(S(=O)(=O)N3CCCC3)c2)c2nc(C)n(C/C(F)=C/CN)c2c1 [Example 70, methyl (Z)-1-(4-amino-2-fluorobut-2-en-1-yl)-2-methyl-4-(3-(pyrrolidin-1-ylsulfonyl)phenyl)-1H-benzo[d]imidazol-6-carboxylate hydrochloride]	–	–
> 100000 nM	> 100000 nM	22.7 nM	1230 nM	COC(=O)c1cc(-c2cccc(S(C)(=O)=O)c2)c2ncn(C/C(F)=C/CN)c2c1 [Example 25, methyl (Z)-1-(4-amino-2-fluorobut-2-en-1-yl)-4-(3-(methylsulfonyl)phenyl)-1H-benzo[d]imidazol-6-carboxylate hydrochloride]	–	–
12400 nM	86600 nM	17 nM	37400 nM	COc1ccc(-c2cccc3c2nnn3C/C(F)=C/CN)cc1S(=O)(=O)N(C)C [Example 102, (Z)-5-(1-(4-amino-2-fluorobut-2-en-1-yl)-1H-benzo[d][1,2,3]triazol-4-yl)-2-methoxy-N,N-dimethylbenzenesulfonamide hydrochloride]	–	–
> 100000 nM	> 100000 nM	35 nM	30700 nM	CNS(=O)(=O)c1cccc(-c2cccc3c2nnn3C/C(F)=C/CN)c1 [Example 111, (Z)-3-(1-(4-amino-2-fluorobut-2-en-1-yl)-1H-benzo[d][1,2,3]triazol-4-yl)-N-methylbenzenesulfonamide hydrochloride]	–	–
> 100000 nM	> 100000 nM	47.3 nM	14500 nM	CCN(CC)S(=O)(=O)c1ccc(OC)c(-c2cc(C(=O)OC)cc3c2nnn3C/C(F)=C/CN)c1 [Example 119, methyl (Z)-1-(4-amino-2-fluorobut-2-en-1-yl)-4-(5-(N,N-diethylsulfamoyl)-2-methoxyphenyl)-1H-benzo[d][1,2,3]triazol-6-carboxylate hydrochloride]	–	–
